Laboratory results from ChEMBL document CHEMBL1136460, “Novel oxazolidinone-quinolone hybrid antimicrobials” (Bioorg Med Chem Lett, 2003).
≈ marks a conversion by molar mass, not a printed value.

Experiments:
Moraxella catarrhalis = assay: Antibacterial activity against Moraxella catarrhalis (MC1002); format: functional
Haemophilus influenzae = assay: Antibacterial activity against Haemophilus influenzae (HI1008); format: functional

MIC (Moraxella catarrhalis): 0.03 µg/mL (≈ 0.0905 µM)
MIC (Haemophilus influenzae): ≤ 0.06 µg/mL
SMILES: O=C(O)c1cn(C2CC2)c2cc(N3CCNCC3)c(F)cc2c1=O [CIPROFLOXACIN]
